One experiment concerns HIV-2 (ROD). Put plainly: microbe, parasite or virus in culture. It counts as cell-based. Particulars: CEM cell cultures, syncytia formation, Table 1; read-out: EC50 HIV-2 ROD. Summed up:
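CEM, C8166 or MT-4 cells (4 to 5×10^5 cells/ml) infected with HIV-2 ROD at ~100 CCID50/ml, then incubated with 5-fold compound dilutions at 37 °C for 4–5 days. Giant cell formation scored microscopically in CEM and C8166 cultures; MT-4 viability counted by trypan blue exclusion.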

Experiment [1] deals with HIV-1 (IIIB). Put plainly: microbe, parasite or virus in culture. Particulars: Table 19. The procedure, abridged:
(§1)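 MT-4, C8166 or CEM cells (4 to 5×10^5 cells/ml) infected at ~100 CCID50/ml, incubated with 5-fold compound dilutions at 37 °C for 4–5 days. Read-out: microscopic giant-cell formation in CEM and C8166 cultures; viable-cell count by trypan blue in MT-4.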

A further experiment deals with HIV-2(ROD). Put plainly: microbe, parasite or virus in culture. Particulars: Table 19. Summed up: as §1
For experiment [2], the system named is Coxsackie virus B4. Put plainly: Antiviral activity in HeLa cell cultures, Coxsackie virus B4. It counts as cell-based. The conditions noted are these: reduces virus-induced cytopathogenicity by 50%, read-out: Minimum inhibitory concentration Coxsackie virus B4. As to the method:
(§2) The cytotoxicity and antiviral activity of various concentrations of G-NH2 and GPG-NH2 were evaluated in cell cultures that were infected with various types of viruses. Conventional host cell culture, viral infection, and infectivity analysis for each different type of cell and virus were followed. Compounds that were known to inhibit replication of the particular types of viruses analyzed were used as controls.
(In general: Protection from cytopathic effect is a common read-out in antiviral testing.)

Experiment [3] relates to Coxsackie virus B4. Put plainly: Antiviral activity in Vero cell cultures, Coxsackie virus B4. Particulars: reduces virus-induced cytopathogenicity by 50%, read-out: Minimum inhibitory concentration Coxsackie virus B4. It counts as cell-based. Here is the method:
as §2

In experiment [4] the test system is HIV (SF2 virus). Put plainly: HIV infectivity assay, SF2-infected H9 cells, reverse transcriptase (RT) quantification in supernatant. It counts as cell-based. Particulars: 100 μM, fetal calf serum.
Experiment [5] deals with HIV (SF2 virus). Put plainly: HIV infectivity assay, SF2-infected H9 cells, p24 quantification. It counts as cell-based. Particulars: 100 μM, presence of fetal calf serum. As to the method:
The remaining wells were filled with sterile distilled water. The cell culture plates were incubated at 37° C. and 5% CO2. After four days the medium was changed, after eight days the medium was changed and the cells were collected. After 11 days, the infection was stopped, the cells were viewed in a 10× magnification microscope and 650 μl of each cell supernatant was collected and frozen at −80° C. for further analysis. After five more days, the supernatants were thawed and used in a conventional reverse transcriptase (RT) activity assay (e.g., Roche AMPLICOR MONITOR™) or a p24 quantification assay (e.g., Abbott Laboratories, Chicago). (See U.S. Pat. No. 6,258,932 and U.S. patent application Ser. No. 10/235,158, both of which are hereby expressly incorporated by reference in its entireties).
[…] The cells in the samples were counted and then centrifuged. The cells were then resuspended in 10 ml of RPMI 1640 (containing fetal calf serum) and either […] Metabolite X or 100 μM GPG-NH2. Uninfected control and untreated control samples were also included in the experiment. The samples were then incubated overnight at 37° C. at 5% CO2.
Then, the amount of p24 in the samples was analysed using a conventional p24 detection assay (see U.S. Pat. No. 6,258,932).
Three replicate samples (“replicates”) of uninfected samples and untreated samples were also included in the experiment as controls. The inhibition of HIV replication was monitored by quantifying the levels of p24 using a conventional detection kit.
Three replicates of unninfected samples and untreated samples were also included in the experiment as controls.

The subject of experiment [6] is HIV-1 (IIIB).
For a further experiment, the system named is Vaccinia virus. The conditions noted are these: read-out: Minimum inhibitory concentration Vaccinia virus; HEL; reduces virus-induced cytopathogenicity by 50%.
The test system of experiment [7] is Vesicular stomatitis virus. The conditions noted are these: read-out: Minimum inhibitory concentration Vesicular stomatitis virus; HEL; reduces virus-induced cytopathogenicity by 50%.
The test system of experiment [8] is Respiratory syncytial virus. Particulars: read-out: Minimum inhibitory concentration Respiratory syncytial virus; HeLa; reduces virus-induced cytopathogenicity by 50%.
For a further experiment, the system named is Reovirus-1. The conditions noted are these: read-out: Minimum inhibitory concentration Reovirus-1; Vero; reduces virus-induced cytopathogenicity by 50%.
The test system of the next experiment is Sindbis virus. The conditions noted are these: read-out: Minimum inhibitory concentration Sindbis virus; Vero; reduces virus-induced cytopathogenicity by 50%.

Read-outs that look alike come from different tables or passages of the source. Residues, ends and D or L forms follow the SMILES beside them. A value given as a limit tells only on which side of the number the result lay.

Consider `NCC(=O)N1CCC[C@H]1C(=O)NCC(N)=O` [GPG-NH2, glycylprolylglycinamide] (H-Gly-Pro-Gly-NH2), for which the EC50 is 30 ± 10 µM with HIV-2 (ROD); 150 µM in the experiment with HIV-1 (IIIB) [1] (read-out: EC50 (C8166) HIV-1 (IIIB)); more than 500 µM in the experiment on HIV-1 (IIIB) [1] (read-out: EC50 (MT-4) HIV-1 (IIIB)); 150 µM in the experiment with HIV-2(ROD) (read-out: EC50 (C8166) HIV-2 (ROD)); more than 500 µM in the experiment with HIV-2(ROD) (read-out: EC50 (MT-4) HIV-2 (ROD)); more than 400 µM with Coxsackie virus B4 [2]. For the same compound, the EC50 in the experiment with Coxsackie virus B4 [3] was more than 400 µM; with HIV-1 (IIIB) [6] (read-out: 50% effective concentration, HIV replication in CEM cell cultures), approximately 30 µM; with HIV-1 (IIIB) [6] (read-out: EC50 (CEM) HIV-1 (IIIB), Table 19) it was 30 µM; in the experiment with HIV-1 (IIIB) [6] (read-out: EC50 HIV-1 IIIB, CEM cell cultures, syncytia formation, Table 1) it was 35 ± 8.7 µM; in the experiment on Vaccinia virus it was more than 400 µM; in [7], more than 400 µM. In addition, the EC50 (in experiment [8]; with Reovirus-1; with Sindbis virus) was more than 400 µM throughout. Further, in the experiment with HIV (SF2 virus) [4], the “reverse transcriptase activity in treated samples” value is “no reverse transcriptase activity”. For the same compound, the “inhibition of HIV replication, p24” value with HIV (SF2 virus) [5] is listed as “effectively inhibited HIV replication”.

The values above are taken from US20080076824A1, “Compounds That Inhibit Replication Of Human Immunodeficiency Virus” (priority 2004, published 2008).
